The values that follow come from patent US8541670B2, “Compositions and methods for inhibiting tumor cell growth” (priority 2007, dated 2013).

Where no end group is shown, it is not given here.

Experiment [1] has as its system panel of 32 kinases (AKT2, AKT3, PKA, PKC, PI3K, SGK, PAK2, PAK3, SAPK2/p38, Abl, CaMKII, CDK1/cyclinB, CDK5/p35, CK1, CK2, CSK, GSK3, JNK1, MAPK1, p70S6K …). Nature of the experiment: In vitro kinase selectivity panel of 32 kinases. It is filed as biochemical. The conditions noted are these: at IC50 for AKT1 (0.1 μM). The procedure:
(§1) As a specific substrate, the phosphorylation level of GSK-3[…] at Ser-9 was also evaluated. […] The decrease was specific to the AKT phosphorylation site on GSK-3[…] at Ser-9, since a change in the phosphorylation level of GSK-3[…] at Tyr-216 or GSK-3[…] at Tyr-279 was not observed. Moreover, the in vivo reduction of the phosphorylation of AKT substrates was more obvious at the injection site, since a significant change in the phosphorylation of AKT substrates in the frontal cortex or cerebellum between the two hemispheres was not observed. […] To test the specificity/selectivity of ZaTa as the inhibitor of AKT1 versus the other major kinases, a series of in vitro kinase assays was performed at IC50 for AKT1 and at ten times higher concentrations. A panel of the following 32 kinases was first tested in vitro using the active form of each kinase and a specific substrate: AKT2, AKT3, PKA, PKC[…], PKC, PI3K[…], PI3K[…], PI3K, SGK, PAK2, PAK3, SAPK2/p38, Abl, CaMKII, CDK1/cyclinB, CDK5/p35, CK1, CK2, CSK, GSK3[…], GSK3[…], JNK1[…]1, MAPK1, p70S6K, PDGFR[…], PDGFR[…], PDK1, PKG1[…], TrkB, JAK2, JAK3, and Syk. […] However, at ten times higher concentration, ZaTa inhibited AKT2 (63%), PI3K[…] (72%), p70S6K (64%), SGK (73%), PAK3 (83%), JAK3 (79%), TrkB (84%), and Abl (42%). […]

Another experiment deals with AKT2 (Homo sapiens, UniProt P31751). Kind of experiment: In vitro kinase assay AKT2. Format: biochemical. The conditions noted are these: ten times higher concentration than 0.1 μM. Here is the method:
as §1

Another experiment concerns the target T1, SGK (Homo sapiens, UniProt O00141).
T1 construct: endogenous in cells
T1 sequence (O00141 1-431): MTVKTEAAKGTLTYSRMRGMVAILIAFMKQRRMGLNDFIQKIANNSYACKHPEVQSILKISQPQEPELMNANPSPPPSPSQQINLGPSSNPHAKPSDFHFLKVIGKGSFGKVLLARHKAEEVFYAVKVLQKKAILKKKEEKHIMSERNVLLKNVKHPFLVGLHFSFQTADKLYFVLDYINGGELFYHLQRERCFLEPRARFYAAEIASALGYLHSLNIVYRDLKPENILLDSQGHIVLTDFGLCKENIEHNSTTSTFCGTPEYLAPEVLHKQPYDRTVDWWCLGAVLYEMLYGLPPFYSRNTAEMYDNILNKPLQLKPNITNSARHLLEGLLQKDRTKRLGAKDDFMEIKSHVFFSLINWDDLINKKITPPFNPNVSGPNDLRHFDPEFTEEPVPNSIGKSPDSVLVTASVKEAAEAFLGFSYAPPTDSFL
Nature of the experiment: In vitro kinase assay SGK. It is filed as biochemical. The conditions noted are these: ten times higher concentration than 0.1 μM. Here is the method:
as §1

The test system of experiment [2] is axonal filament bundles in striatum. Kind of experiment: In vivo axon morphology, neurofilament-H staining of striatum after stereotactic injection. Also on record: species or system mouse. The conditions noted are these: 18 hours after surgery, versus DMSO hemisphere. Here is the method: To determine the phenotypic effect of disrupting the AKT-PKAc complex in an in vivo setting, ZaTa peptide was stereotactically injected into the brain of a mouse and the animal was perfused 18 hours after recovery from surgery. Because AKT is known to have a role in axonal morphology (Markus, et al. (2002) Neuron 35:65-76), coronal sections of striatum were stained with neurofilament-H(NF—H), as an axonal-specific marker. […] PKA is also known to have a role in regeneration of growth cones on axons (Chierzi, et al. (2005) Eur. J. Neurosci. 21:2051-2062). Therefore, given the data provided herein, it is believed that a proper interaction between AKT and PKAc is involved in maintaining normal neuronal morphology.

The test system of the next experiment is AKT. Nature of the experiment: Western blot of AKT substrate phosphorylation in N2a cells. Format: cell-based. The conditions noted are these: different doses. Here is the method:
AKT affects a network that positively regulates G1/S cell cycle progression through several mechanisms that involve the expression and subcellular localization of the CDK inhibitor p27^Kip1 (Blain and Massague (2002) Nat. Med. 8:1076-1078; Liang, et al. (2002) supra; Shin, et al. (2002) supra; Viglietto, et al. (2002) supra). Based on these studies, the effect of ZaTa peptide on cell proliferation was assessed. […] Capturing live images of cultured N2a cells in the presence of different concentrations of the ZaTa peptide confirmed an obvious reduction in the number of dividing cells.
N2a cells were cultured in Dulbecco's Modified Eagle's Medium (DMEM) and OPTI-MEM® media (50% of each; GIBCO-BRL, Gaithersberg, Md.) supplemented with 5% fetal bovine serum (FBS; SIGMA, St. Louis, Mo.), penicillin-streptomycin and L-Glutamine (GIBCO-BRL). […] Protein concentration was measured using a commercially available protein assay (BIO-RAD, […].) protein assay and spectrometry at 595 Å. […] The membrane was probed with primary and secondary antibodies and signals were detected by chemiluminescence followed by autoradiography.

Sequence of AKT2 (P31751 whole entry, species assumed): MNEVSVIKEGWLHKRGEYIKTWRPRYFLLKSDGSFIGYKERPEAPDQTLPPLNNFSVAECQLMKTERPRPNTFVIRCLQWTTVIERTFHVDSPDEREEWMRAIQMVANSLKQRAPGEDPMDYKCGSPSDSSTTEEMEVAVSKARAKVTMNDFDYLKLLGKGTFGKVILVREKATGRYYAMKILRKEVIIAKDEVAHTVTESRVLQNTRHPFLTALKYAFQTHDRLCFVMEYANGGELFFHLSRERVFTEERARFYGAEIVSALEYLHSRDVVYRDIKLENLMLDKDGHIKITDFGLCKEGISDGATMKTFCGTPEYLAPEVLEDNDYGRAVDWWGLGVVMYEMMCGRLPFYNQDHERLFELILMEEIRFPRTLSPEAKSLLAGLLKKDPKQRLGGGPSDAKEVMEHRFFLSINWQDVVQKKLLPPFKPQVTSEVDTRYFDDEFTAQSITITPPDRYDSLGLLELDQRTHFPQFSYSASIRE

As to AKRVKGRTWTLCGTPEY [ZaTa], the “inhibition of panel kinases” value in experiment [1] is “no significant inhibition”. Also, at AKT2, the “inhibition of AKT2” value is reported as 63%. For the same sequence, on SGK, the “inhibition of SGK” value amounted to 73%. Besides, the “staining pattern of axonal filament bundles (NF-H) in striatum” value in experiment [2] is listed as “Changes in the staining pattern of axonal filament bundles”. In the experiment with AKT, the “phosphorylation level of AKT substrates in N2a cells” value was “concomitant decrease”.
